Values quoted from earlier work in patent US4554271A, “Use of high doses of derivatives of 6α-methylprednisolone for the acute treatment of stroke syndrome” (The Upjohn Company, priority 1984, dated 1985).
Where a name gives a salt, the structure may show the parent alone. Read-outs that look alike come from different tables or passages of the source. Each block holds one compound with its values, some of them ahead of it.

Key:
[1] = tested on: canine middle cerebral artery (MCA); conditions: canine MCA embolization, embolectomy at 6 hours; DMSO 2 gm/kg
(Na^+ +K^+)-ATPase [2] = conditions: cat spinal cord; large intravenous doses
lipid peroxide formation = conditions: cat spinal cord; large intravenous doses
motor neuron = conditions: cat; large intravenous doses
[3] = tested on: cyclic guanosine 3',5'-monophosphate (cyclic GMP); conditions: cat
(Na^+ +K^+)-ATPase [4] = conditions: for (Na^+ +K^+)-ATPase activity in the injured cord: cat
[5] = tested on: spinal cord-injured animals; conditions: comparable doses (15 to 30 mg/kg) soon after injury; other studies
cerebral ischemia = conditions: anesthetized gerbil; 35 mg/kg; bilateral occlusion of the carotid arteries
[6] = tested on: adenylate cyclase systems
[7] = tested on: cardiac, renal, and hepatic ischemia; conditions: in vivo
[8] = single 30-mg/kg dose
[9] = tested on: ischemia-induced neurological deficits; conditions: gerbils; title of cited paper
[10] = 15- or 30-mg/kg intravenous dose given 30 minutes after trauma, earlier studies

SMILES: C[S+](C)[O-] [DMSO, dimethyl sulfoxide]
infarction of the brain [1]: no infarction

SMILES: C[C@H]1C[C@@H]2[C@H]([C@@H](O)C[C@@]3(C)[C@H]2CC[C@]3(O)C(=O)COC(=O)CCC(=O)O)[C@@]2(C)C=CC(=O)C=C12 [methylprednisolone sodium succinate, 1-dehydro-6α-methylhydrocortisone 21-hemisuccinate sodium salt]
spinal cord (Na^+ +K^+)-ATPase activity ((Na^+ +K^+)-ATPase [2]): enhancement | lipid peroxide formation (lipid peroxide formation): attenuation | impulse conduction along the myelinated portion of the motor axon (motor neuron): accelerated | motor neuron resting membrane potentials (motor neuron): hyperpolarization

spinal cord tissue levels of methylprednisolone at which each of the effects is apparent (cat, single intravenous dose of 30 mg/kg): around 1.3 μg/gm wet weights | half-life in cat spinal cord (single intravenous administration, 30 mg/kg): roughly 3 hours | harmful effects [8]: virtually without harmful effects
SMILES: C[C@H]1C[C@@H]2[C@H]([C@@H](O)C[C@@]3(C)[C@H]2CC[C@]3(O)C(=O)CO)[C@@]2(C)C=CC(=O)C=C12 [methylprednisolone, 1-Dehydro-6α-methylhydrocortisone]
duration of its pharmacological actions (cat, single intravenous administration): roughly 3 hours | lipid peroxidation at 1 hour after injury (lipid peroxidation; [10]): significantly reduce | injury-induced increase in fluorescence (lipid peroxy products) in spinal segment (lipid peroxidation; cat, 15 or 30 mg/kg i.v. at 30 minutes after injury, read at 1 hour): completely prevented | injury-induced increase in cyclic GMP content in spinal segment ([3]; 15 or 30 mg/kg i.v. at 30 minutes after injury, read at 1 hour): completely prevented | elevation in cyclic GMP ([3]; 60-mg/kg dose): did not prevent | (Na^+ +K^+)-ATPase activity at 1 hour after injury ((Na^+ +K^+)-ATPase [4]; [10]): enhance | (Na^+ +K^+)-ATPase activity in the injured cord ((Na^+ +K^+)-ATPase [4]; 30-mg/kg dose): striking increase | (Na^+ +K^+)-ATPase activity in the injured cord ((Na^+ +K^+)-ATPase [4]; 60-mg/kg dose): depression in activity | recovery and tissue preservation in spinal cord-injured animals [5]: significantly greater | survival after cerebral ischemia (cerebral ischemia): improved survival | damaging effect (adenylate cyclase systems) of 60 minutes occlusion plus 15 minutes recirculation ([6]; barbiturate-anesthetized gerbils, pretreatment 30 mg/kg, 30 min. prior to carotid ligation): prevented | chronic (7 days) enzyme damage elicited by 15 minutes of bilateral stroke ([6]; gerbils, preliminary work): prevented | relieving cardiac, renal, and hepatic ischemia [7]: effective

SMILES: C=CCN1CC[C@]23c4c5ccc(O)c4O[C@H]2C(=O)CC[C@@]3(O)[C@H]1C5 [naloxone]
reversal of ischemia-induced neurological deficits [9]: Failure
